Legend:
Vero E6 cells = experiment: Cytotoxicity, neutral red uptake assay in Vero E6 cells
[1] = as above; conditions: African green monkey
EV-A71 3C^pro = EV-A71 3C^pro (Human enterovirus 71, UniProt Q66478); experiment: FRET-based enzymatic assay, EV-A71 3C^pro; type: biochemical
Calu-3 cells = experiment: Cytotoxicity in Calu-3 cells
SARS-CoV M^pro = SARS-CoV M^pro (Severe acute respiratory syndrome coronavirus, UniProt P0C6X7); experiment: biochemical; conditions: IC50 against SARS-CoV M^pro
EV-A71 2A^pro = EV-A71 2A^pro (Human enterovirus 71, UniProt Q66478); experiment: FRET-based enzymatic assay, EV-A71 2A^pro; type: biochemical
EV-A71 2A^pro, sequence (Q66478 863-1012 limits assumed): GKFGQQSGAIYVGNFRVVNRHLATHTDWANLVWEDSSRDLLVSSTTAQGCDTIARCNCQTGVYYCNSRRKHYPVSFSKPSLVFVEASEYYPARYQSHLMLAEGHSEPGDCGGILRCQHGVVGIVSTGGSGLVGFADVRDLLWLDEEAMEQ

HCoV-OC43 M^pro = HCoV-OC43 M^pro (Human coronavirus OC43, UniProt P0C6X6); experiment: FRET-based enzymatic assay, HCoV-OC43 M^pro
HCoV-OC43 M^pro, sequence (P0C6X6 3247-3549 limits assumed): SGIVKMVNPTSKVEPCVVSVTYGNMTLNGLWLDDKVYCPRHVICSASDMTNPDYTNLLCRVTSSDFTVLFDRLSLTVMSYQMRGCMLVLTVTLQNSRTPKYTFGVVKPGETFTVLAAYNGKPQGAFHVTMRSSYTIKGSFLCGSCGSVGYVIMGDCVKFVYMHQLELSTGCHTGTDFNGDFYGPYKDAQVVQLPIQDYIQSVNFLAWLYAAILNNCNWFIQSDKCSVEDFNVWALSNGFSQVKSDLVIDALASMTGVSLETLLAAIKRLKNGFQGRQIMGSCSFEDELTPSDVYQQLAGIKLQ

EV-D68 2A^pro = EV-D68 2A^pro (Human enterovirus D68, UniProt Q68T42); experiment: FRET-based enzymatic assay, EV-D68 2A^pro; type: biochemical
EV-D68 2A^pro, sequence (Q68T42 862-1008 limits assumed): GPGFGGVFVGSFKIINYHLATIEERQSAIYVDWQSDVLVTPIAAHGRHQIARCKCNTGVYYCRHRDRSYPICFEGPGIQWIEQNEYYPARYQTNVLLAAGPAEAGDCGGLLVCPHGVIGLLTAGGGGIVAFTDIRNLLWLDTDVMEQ

EV-D68 3C^pro = EV-D68 3C^pro (Human enterovirus D68, UniProt Q68T42); experiment: FRET-based enzymatic assay, EV-D68 3C^pro; type: biochemical
EV-D68 3C^pro, sequence (Q68T42 1549-1731 limits assumed): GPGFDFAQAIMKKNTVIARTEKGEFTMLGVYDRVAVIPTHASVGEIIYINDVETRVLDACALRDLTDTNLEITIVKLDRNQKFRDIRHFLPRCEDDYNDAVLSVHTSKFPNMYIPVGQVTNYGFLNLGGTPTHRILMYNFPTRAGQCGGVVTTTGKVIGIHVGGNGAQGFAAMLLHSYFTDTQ

MERS-CoV M^pro = MERS-CoV M^pro (Middle East respiratory syndrome-related coronavirus, UniProt K9N7C7); type: biochemical
MERS-CoV M^pro, sequence (K9N7C7 3248-3553 limits assumed): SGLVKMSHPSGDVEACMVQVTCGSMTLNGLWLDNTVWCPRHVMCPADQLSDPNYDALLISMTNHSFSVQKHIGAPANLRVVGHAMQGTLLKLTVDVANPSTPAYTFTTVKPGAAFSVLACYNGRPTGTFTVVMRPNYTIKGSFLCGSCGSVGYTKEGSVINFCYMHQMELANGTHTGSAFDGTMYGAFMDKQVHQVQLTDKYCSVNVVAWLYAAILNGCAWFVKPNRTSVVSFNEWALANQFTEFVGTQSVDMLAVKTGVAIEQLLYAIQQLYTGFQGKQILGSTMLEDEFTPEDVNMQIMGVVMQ

EV-A71 3C^pro, sequence (Q66478 1549-1731 limits assumed): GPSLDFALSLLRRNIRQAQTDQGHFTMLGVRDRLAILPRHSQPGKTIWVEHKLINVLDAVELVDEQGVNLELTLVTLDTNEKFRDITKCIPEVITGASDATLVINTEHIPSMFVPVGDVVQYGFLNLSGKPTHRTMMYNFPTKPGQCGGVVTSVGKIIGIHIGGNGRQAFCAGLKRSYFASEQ

For `CC(C)(C)c1ccc(N(C(=O)c2ccco2)C(C(=O)NC2CC2)c2cccnc2)cc1` (centres unmarked) [Compound 3, 2-[N-(4-tert-butylphenyl)-1-(furan-2-yl)formamido]-N-cyclopropyl-2-(pyridin-3-yl)acetamide], the “CC50 in Vero E6 cells” value (Vero E6 cells) was “moderate to high cellular cytotoxicity”.

With `CC(C)(C)c1ccc(N(C(=O)c2ccco2)C(C(=O)NC2CCCC2)c2cccnc2)cc1` (centres unmarked) [Compound 5, 2-[N-(4-tert-butylphenyl)-1-(furan-2-yl)formamido]-N-cyclopentyl-2-(pyridin-3-yl)acetamide] the CC50 at 5 days [1] was > 100 µM.

In the case of `CC(C)(C)c1ccc(N(C(=O)c2ccco2)C(C(=O)NC2CCCCC2)c2cccnc2)cc1` (centres unmarked) [Compound 6, 2-[N-(4-tert-butylphenyl)-1-(furan-2-yl)formamido]-N-cyclohexyl-2-(pyridin-3-yl)acetamide], the “CC50 in Vero E6 cells” value (Vero E6 cells) is reported as “moderate to high cellular cytotoxicity”.

With `C[C@H](NC(=O)C(c1cccnc1)N(C(=O)c1ccco1)c1ccc([Si](C)(C)C)cc1)c1ccccc1` (stereo partly drawn) [Compound 14, 2-[1-(furan-2-yl)-N-[4-(trimethylsilyl)phenyl]formamido]-N-[(1S)-1-phenylethyl]-2-(pyridinyl)acetamide] the “CC50 in Vero E6 cells” value (Vero E6 cells) was “moderate to high cellular cytotoxicity”.

With `C[C@H](NC(=O)C(c1cccnc1)N(C(=O)c1ccco1)c1ccc(C2CCCCC2)cc1)c1ccccc1` (stereo partly drawn) [Compound 17, 2-[N-(4-cyclohexylphenyl)-1-(furan-2-yl)formamido]-N-[(1S)-1-phenylethyl]-2-(pyridin-3-yl)acetamide] the “CC50 in Vero E6 cells” value (Vero E6 cells) was “moderate to high cellular cytotoxicity”.

For `C[C@H](NC(=O)C(c1cccnc1)N(C(=O)c1ccco1)c1ccc(-c2ccco2)cc1)c1ccccc1` (stereo partly drawn) [Compound 18, 2-[1-(furan-2-yl)-N-[4-(furan-2-yl)phenyl]formamido]-N-[(1S)-1-phenylethyl]-2-(pyridin-3-yl)acetamide], the “CC50 in Vero E6 cells” value (Vero E6 cells) was “moderate to high cellular cytotoxicity”.

In the case of `C[C@H](NC(=O)C(c1cccnc1)N(C(=O)c1ccco1)c1ccc(-c2cccs2)cc1)c1ccccc1` (stereo partly drawn) [Compound 19, 2-[1-(furan-2-yl)-N-[4-(thiophen-2-yl)phenyl]formamido]-N-[(1S)-1-phenylethyl]-2-(pyridin-3-yl)acetamide], the “CC50 in Vero E6 cells” value (Vero E6 cells) is reported as “moderate to high cellular cytotoxicity”.

For `C[C@H](NC(=O)[C@@H](c1cccnc1)N(C(=O)c1ccco1)c1ccc(-c2ccccc2)cc1)c1ccccc1` [Compound 23R, (2R)-2-(N-{[1,1’-biphenyl]-4-yl}-1-(furan-2-yl)formamido)-N-[(1S)-1-phenylethyl]-2-(pyridin-3-yl)acetamide], the “IC50 against EV-A71 3C^pro” value (EV-A71 3C^pro; FRET-based enzymatic assay) was “not other viral proteases tested”, the “cytotoxicity to Vero E6 cells (not cytotoxic at up to)” value (Vero E6 cells) was > 100 µM and the “cytotoxicity in Calu-3 cells (not cytotoxic at up to)” value (Calu-3 cells) was > 100 µM. The IC50 (SARS-CoV M^pro) was ≤ 0.27 µM, the “IC50 against EV-A71 2A^pro” value (EV-A71 2A^pro; FRET-based enzymatic assay) was “not other viral proteases tested” and the “IC50 against HCoV-OC43 M^pro” value (HCoV-OC43 M^pro) was “not other viral proteases tested”. For the same compound, the “IC50 against EV-D68 2A^pro” value (EV-D68 2A^pro; FRET-based enzymatic assay) was “not other viral proteases tested”, the “IC50 against EV-D68 3C^pro” value (EV-D68 3C^pro; FRET-based enzymatic assay) was “not other viral proteases tested” and the “IC50 against MERS-CoV M^pro” value (MERS-CoV M^pro) was “not other viral proteases tested”.

In the case of `C[C@H](NC(=O)C(c1cccnc1)N(C(=O)c1cnco1)c1ccc(-c2ccccc2)cc1)c1ccccc1` (stereo partly drawn) [Compound 26, 2-(N-{[1,1’-biphenyl]-4-yl}-1-(1,3-oxazol-5-yl)formamido)-N-[(1S)-1-phenylethyl]-2-(pyridin-3-yl)acetamide], the “CC50 in Vero E6 cells” value (Vero E6 cells) is reported as “moderate to high cellular cytotoxicity”.

In the case of `O=C(NC1CCCCC1)C(c1cccnc1)N(C(=O)c1ccco1)c1ccc(-c2ccccc2)cc1` (centres unmarked) [Compound 34, 2-(N-{[1,1’-biphenyl]-4-yl}-1-(furan-2-yl)formamido)-N-cyclohexyl-2-(pyridin-3-yl)acetamide], the “CC50 in Vero E6 cells” value (Vero E6 cells) is reported as “moderate to high cellular cytotoxicity”.

For `C[C@H](NC(=O)C(c1cccnc1)N(C(=O)c1ccno1)c1ccc(C2CCCCC2)cc1)c1ccccc1` (stereo partly drawn) [Compound 36, 2-[N-(4-cyclohexylphenyl)-1-(1,2-oxazol-5-yl)formamido]-N-[(1S)-1-phenylethyl]-2-(pyridin-3-yl)acetamide], the “CC50 in Vero E6 cells” value (Vero E6 cells) was “moderate to high cellular cytotoxicity”.

For `CC(C)C[C@H](NC(=O)OCc1ccccc1)C(=O)N[C@@H](C[C@@H]1CCNC1=O)C(O)S(=O)(=O)O` (some centres unmarked) [GC376, reference compound], the IC50 (EV-A71 3C^pro) was ≤ 0.16 µM, the IC50 (EV-A71 2A^pro) was > 50 µM and the IC50 (EV-D68 2A^pro) was > 50 µM. For the same compound, the IC50 (EV-D68 3C^pro) was ≤ 0.16 µM.

Reference: article PMC8536799 (Journal of medicinal chemistry, 2021)
